According to paper PMC6013238, “Development of novel NEMO-binding domain mimetics for inhibiting IKK/NF-κB activation” (PLoS Biology, 2018):

How the values were obtained:
JNK/p38MAPK signaling = assay: Western blot of JNK and p38MAPK phosphorylation in Raw 264.7 cells; type: cell-based, mouse; conditions: 150 μM; TNF-α or LPS stimulation
Method: (§1) To determine whether the novel NBD mimetics target the NEMO-IKKβ interaction in vivo, co-immunoprecipitations were performed using extracts from Raw 264.7 macrophages (Fig 5A). […] No interaction between NEMO and TNF receptor-associated factor 2 (TRAF2) or IκBα was observed under these conditions. […] The levels of phosphorylated IKK complex, IκBα, and p65 in response to TNF-α and LPS were all reduced by SR12343 (Fig 5D & 5E). […] However, there were no changes in the levels of phospho-c-Jun N-terminal kinase (p-JNK), p-p38MAPK, total JNK, and p38MAPK by treatment with SR12343 (150 μM) in response to TNF-α or LPS stimulation (Fig 5G & 5H). […]
(§2) (A) Co-IP analysis detecting the IKKβ/NEMO interaction. […] NEMO-binding products were then analyzed for levels of IKKβ, IKKα, TRAF2, and IκBα (negative control), and levels of NEMO were used as a loading control (left panel). […] The levels of IKKβ-FLAG binding to GST-NEMO were determined by western blot analysis with GST-NEMO used as a loading control. […] Cell lysates were analyzed for activity of the IKK/NF-κB signaling pathway including activation of IKK complex, IκBα, and p65. […] Cell lysates were harvested and analyzed for activation of noncanonical NF-κB signaling, the processing of p100 to p52. […]

[1] = tested on: noncanonical NF-κB pathway; assay: Noncanonical NF-κB pathway, anti-LTβR-stimulated Raw 264.7 cells (p100 to p52 processing); type: cell-based, mouse; conditions: 100 μM, 30 min; anti-LTβR 8 h
Method: as §1, §2

SMILES: O=C(CNc1ccc(Cl)cn1)NCCc1cccc(Br)c1 [SR12343]
- Levels of p-JNK, p-p38MAPK, total JNK and p38MAPK (JNK/p38MAPK signaling): no changes
- Activation of noncanonical NF-κB pathway (p100 to p52 processing) [1]: no effect
